According to publication PMC12892976, “Alkylation-based optimization of antifungal FPPS inhibitors yields a potent, broad-spectrum lipophilic zoledronate derivative” (mBio, 2025):
≈ marks a conversion by molar mass, not a printed value.

What was measured:
[1] = system: Rhizopus oryzae; assay: MIC broth microdilution (CLSI); format: cell-based; conditions: Rhizopus oryzae 04-14-364-1703
Procedure: (§1) Antifungal susceptibility was determined by broth microdilution according to the CLSI guidelines described in M27-Ed4 ([16]).

[2] = system: Scedosporium apiospermum; assay: checkerboard drug interaction (FICI, MICc); format: cell-based;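 also: simplified diagonal checkerboard screen of antifungal plus FPPS inhibitor pairs, with FICI computed under the Loewe additivity model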
Procedure: (§2) Drug interactions between antifungals and FPPS inhibitors were investigated using a simplified checkerboard diagonal screening method ([45]). […] FICIs were determined according to the Loewe additivity model ([17]).

[3] = system: Mucor circinelloides; assay: checkerboard drug interaction (FICI, MICc); format: cell-based;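 also: simplified diagonal checkerboard screen pairing antifungals with FPPS inhibitors, FICI calculated under the Loewe additivity model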
Procedure: as §2

[4] = system: Aspergillus parafelis; assay: MIC broth microdilution (CLSI); format: cell-based; conditions: Aspergillus parafelis DTO 341-F2
Procedure: as §1

[5] = system: Nannizzia gypsea; assay: checkerboard drug interaction (FICI, MICc);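 also: simplified diagonal checkerboard screen pairing antifungals with FPPS inhibitors, FICI derived using the Loewe additivity model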
Procedure: as §2

[6] = system: Aspergillus frankstonensis; assay: checkerboard drug interaction (FICI, MICc);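 also: simplified diagonal checkerboard screen pairing antifungals with FPPS inhibitors, FICI calculated using the Loewe additivity model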
Procedure: as §2

[7] = system: Fusarium solani; assay: checkerboard drug interaction (FICI, MICc); format: cell-based;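 also: simplified diagonal checkerboard screen pairing antifungals with FPPS inhibitors, FICI derived under the Loewe additivity model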
Procedure: as §2

[8] = system: Aspergillus niger; assay: MIC broth microdilution (CLSI); format: cell-based; conditions: Aspergillus niger 111
Procedure: as §1

[9] = system: Lomentospora prolificans; assay: MIC broth microdilution (CLSI); format: cell-based; conditions: Lomentospora prolificans 80-16-101-2445
Procedure: as §1

[10] = system: Candida tropicalis; assay: MIC broth microdilution (CLSI); format: cell-based; conditions: Candida tropicalis M230640
Procedure: as §1

[11] = system: Cryptococcus gattii; assay: MIC broth microdilution (CLSI); format: cell-based; conditions: Cryptococcus gattii PNG27
Procedure: as §1

[12] = system: Cryptococcus gattii; assay: checkerboard drug interaction (FICI, MICc); format: cell-based;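 also: simplified diagonal checkerboard screen pairing antifungals with FPPS inhibitors, FICI computed under the Loewe additivity model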
Procedure: as §2

[13] = system: Lomentospora prolificans; assay: checkerboard drug interaction (FICI, MICc);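 also: simplified diagonal checkerboard screen pairing antifungals with FPPS inhibitors, FICI calculated under the Loewe additivity model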
Procedure: as §2

[14] = system: Aspergillus parafelis; assay: checkerboard drug interaction (FICI, MICc);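 also: simplified diagonal checkerboard screen pairing antifungals with FPPS inhibitors, FICI calculated under the Loewe additivity model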
Procedure: as §2

[15] = system: Nannizzia nana; assay: MIC broth microdilution (CLSI); format: cell-based; conditions: Nannizzia nana R-133
Procedure: as §1

[16] = system: Trichophyton interdigitale; assay: checkerboard drug interaction (FICI, MICc);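 also: simplified diagonal checkerboard screen pairing antifungals with FPPS inhibitors, FICI values calculated under the Loewe additivity model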
Procedure: as §2

[17] = system: Aspergillus frankstonensis; assay: MIC broth microdilution (CLSI); format: cell-based; conditions: Aspergillus frankstonensis DTO 341-F3
Procedure: as §1

[18] = system: Microsporum canis; assay: checkerboard drug interaction (FICI, MICc); format: cell-based;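 also: simplified diagonal checkerboard screen pairing antifungals with FPPS inhibitors, FICI calculated under the Loewe additivity model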
Procedure: as §2

[19] = system: Trichophyton tonsurans; assay: checkerboard drug interaction (FICI, MICc); format: cell-based;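 also: simplified diagonal checkerboard screen combining antifungals with FPPS inhibitors, with FICI calculated under the Loewe additivity model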
Procedure: as §2

[20] = system: Aspergillus lentulus; assay: checkerboard drug interaction (FICI, MICc); format: cell-based;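 also: simplified diagonal checkerboard screen pairing antifungals with FPPS inhibitors, with the interaction index calculated under the Loewe additivity model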
Procedure: as §2

[21] = system: Scedosporium apiospermum; assay: MIC broth microdilution (CLSI); format: cell-based; conditions: Scedosporium apiospermum 04-16-022-2268
Procedure: as §1

[22] = system: Cryptococcus tetragattii; assay: checkerboard drug interaction (FICI, MICc); format: cell-based;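 also: simplified diagonal checkerboard screen pairing antifungals with FPPS inhibitors, with FICI calculated under the Loewe additivity model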
Procedure: as §2

[23] = system: Aspergillus niger; assay: checkerboard drug interaction (FICI, MICc); format: cell-based
Procedure: as §2

[24] = system: Candida auris; assay: MIC broth microdilution (CLSI); format: cell-based; conditions: Candida auris CDC-0384
Procedure: as §1

[25] = system: Trichophyton soudanense; assay: checkerboard drug interaction (FICI, MICc); format: cell-based;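 also: simplified diagonal checkerboard screen pairing antifungals with FPPS inhibitors, FICI computed under the Loewe additivity model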
Procedure: as §2

[26] = system: Candida parapsilosis; assay: checkerboard drug interaction (FICI, MICc); format: cell-based;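 also: simplified diagonal checkerboard screen pairing antifungals with FPPS inhibitors, with FICI computed under the Loewe additivity model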
Procedure: as §2

[27] = system: Mucor circinelloides; assay: MIC broth microdilution (CLSI); format: cell-based; conditions: Mucor circinelloides 80-14-240-5007
Procedure: as §1

[28] = system: Aspergillus udagawae; assay: MIC broth microdilution (CLSI); format: cell-based; conditions: Aspergillus udagawae 8G81
Procedure: as §1

[29] = system: Epidermophyton floccosum; assay: checkerboard drug interaction (FICI, MICc)
Procedure: as §2

[30] = system: Candida auris; assay: checkerboard drug interaction (FICI, MICc); format: cell-based;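 also: simplified diagonal checkerboard screen pairing antifungals with FPPS inhibitors, with FICI computed under the Loewe additivity model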
Procedure: as §2

[31] = system: Fusarium oxysporum; assay: checkerboard drug interaction (FICI, MICc); format: cell-based
Procedure: as §2

[32] = system: Nannizzia nana; assay: checkerboard drug interaction (FICI, MICc); format: cell-based
Procedure: as §2

[33] = system: Candida parapsilosis; assay: MIC broth microdilution (CLSI); format: cell-based; conditions: Candida parapsilosis ATCC 22018
Procedure: Antifungal susceptibility was determined by broth microdilution according to the CLSI guidelines described in M27-Ed4 ([16]). […] MFC was determined by back-plating drug-treated cultures from MIC broths onto SDA plates. The MFC was defined as the lowest concentration from which no colonies could be cultured.

[34] = system: Candida dubliniensis; assay: MIC broth microdilution (CLSI); format: cell-based; conditions: Candida dubliniensis M230642
Procedure: as §1

## CC[C@H](C)C[C@H](C)CCCCCCCCC(=O)N[C@H]1C[C@@H](O)[C@@H](NCCN)NC(=O)[C@@H]2[C@@H](O)CCN2C(=O)[C@H]([C@H](O)CCN)NC(=O)[C@H]([C@H](O)[C@@H](O)c2ccc(O)cc2)NC(=O)[C@@H]2C[C@@H](O)CN2C(=O)[C@H]([C@@H](C)O)NC1=O [CAS, caspofungin]
[1]
  MIC / MEC: >16 µg/mL
[2]; in combination with 10-ZOL
  antifungal MICc: 16
[2]; in combination with ZOL
  antifungal MICc: 32
[3]; in combination with 10-ZOL
  antifungal MICc: 128
[3]; in combination with ZOL
  antifungal MICc: 16
[4]
  MIC / MEC: 0.13 µg/mL (≈ 0.119 µM)
[5]; in combination with 10-ZOL
  antifungal MICc: 0.25
[5]; in combination with ZOL
  antifungal MICc: 0.5
[6]; in combination with 10-ZOL
  antifungal MICc: 0.125
[6]; in combination with ZOL
  antifungal MICc: 0.5
[7]; in combination with 10-ZOL
  antifungal MICc: 16
[7]; in combination with ZOL
  antifungal MICc: 64
[8]
  MIC / MEC: 4 µg/mL (≈ 3.66 µM)
[9]
  MIC / MEC: >16 µg/mL
[10]
  MIC / MEC: 0.06 µg/mL (≈ 0.0549 µM)
[11]
  MIC / MEC: 8 µg/mL (≈ 7.32 µM)
[12]; in combination with 10-ZOL
  antifungal MICc: 2
[12]; in combination with ZOL
  antifungal MICc: 16
[13]; in combination with 10-ZOL
  antifungal MICc: 128
[13]; in combination with ZOL
  antifungal MICc: 64
[14]; in combination with 10-ZOL
  antifungal MICc: 0.5
[14]; in combination with ZOL
  antifungal MICc: 0.065
[15]
  MIC / MEC: 0.13 µg/mL (≈ 0.119 µM)
[16]; in combination with 10-ZOL
  antifungal MICc: 0.5
[16]; in combination with ZOL
  antifungal MICc: 0.25
[17]
  MIC / MEC: 0.13 µg/mL (≈ 0.119 µM)
[18]; in combination with 10-ZOL
  antifungal MICc: 0.25
[18]; in combination with ZOL
  antifungal MICc: 0.125
[19]; in combination with 10-ZOL
  antifungal MICc: 2
[19]; in combination with ZOL
  antifungal MICc: 0.25
[20]; in combination with 10-ZOL
  antifungal MICc: 4
[20]; in combination with ZOL
  antifungal MICc: 2
[21]
  MIC / MEC: 16 µg/mL (≈ 14.6 µM)
[22]; in combination with 10-ZOL
  antifungal MICc: 1
[22]; in combination with ZOL
  antifungal MICc: 16
[23]; in combination with 10-ZOL
  antifungal MICc: 2
[23]; in combination with ZOL
  antifungal MICc: 4
[24]
  MIC / MEC: 4 µg/mL (≈ 3.66 µM)
[25]; in combination with 10-ZOL
  antifungal MICc: 0.5
[25]; in combination with ZOL
  antifungal MICc: 1
[26]; in combination with 10-ZOL
  antifungal MICc: 0.25
[26]; in combination with ZOL
  antifungal MICc: 0.5
[27]
  MIC / MEC: >16 µg/mL
[28]
  MIC / MEC: 2 µg/mL (≈ 1.83 µM)
[29]; in combination with 10-ZOL
  antifungal MICc: 0.125
[29]; in combination with ZOL
  antifungal MICc: 0.25
[30]; in combination with 10-ZOL
  antifungal MICc: 0.5
[30]; in combination with ZOL
  antifungal MICc: 4
[31]; in combination with 10-ZOL
  antifungal MICc: 128
[31]; in combination with ZOL
  antifungal MICc: 64
[32]; in combination with 10-ZOL
  antifungal MICc: 0.25
[32]; in combination with ZOL
  antifungal MICc: 0.033
[33]
  MIC / MEC: 1 µg/mL (≈ 0.915 µM)
[34]
  MIC / MEC: 0.06 µg/mL (≈ 0.0549 µM)

## CC(=O)N1CCN(c2ccc(OCC3COC(Cn4ccnc4)(c4ccc(Cl)cc4Cl)O3)cc2)CC1 (stereo not drawn) [KET, ketoconazole]
[1]
  MIC / MEC: >16 µg/mL
[2]; in combination with 10-ZOL
  antifungal MICc: 4
[2]; in combination with ZOL
  antifungal MICc: 4
[3]; in combination with 10-ZOL
  antifungal MICc: 4
[3]; in combination with ZOL
  antifungal MICc: 8
[4]
  MIC / MEC: >16 µg/mL
[5]; in combination with 10-ZOL
  antifungal MICc: 2
[5]; in combination with ZOL
  antifungal MICc: 1
[6]; in combination with 10-ZOL
  antifungal MICc: 1
[6]; in combination with ZOL
  antifungal MICc: 4
[7]; in combination with 10-ZOL
  antifungal MICc: 4
[7]; in combination with ZOL
  antifungal MICc: 4
[8]
  MIC / MEC: 8 µg/mL (≈ 15.1 µM)
[9]
  MIC / MEC: 4 µg/mL (≈ 7.53 µM)
[10]
  MIC / MEC: 8 µg/mL (≈ 15.1 µM)
[11]
  MIC / MEC: 0.5 µg/mL (≈ 0.941 µM)
[12]; in combination with 10-ZOL
  antifungal MICc: 0.125
[12]; in combination with ZOL
  antifungal MICc: 0.5
[13]; in combination with 10-ZOL
  antifungal MICc: 0.25
[13]; in combination with ZOL
  antifungal MICc: 2
[14]; in combination with 10-ZOL
  antifungal MICc: 16
[14]; in combination with ZOL
  antifungal MICc: 32
[15]
  MIC / MEC: 0.5 µg/mL (≈ 0.941 µM)
[16]; in combination with 10-ZOL
  antifungal MICc: 0.5
[16]; in combination with ZOL
  antifungal MICc: 2
[17]
  MIC / MEC: 8 µg/mL (≈ 15.1 µM)
[18]; in combination with 10-ZOL
  antifungal MICc: 1
[18]; in combination with ZOL
  antifungal MICc: 4
[19]; in combination with 10-ZOL
  antifungal MICc: 0.25
[19]; in combination with ZOL
  antifungal MICc: 0.5
[20]; in combination with 10-ZOL
  antifungal MICc: 4
[20]; in combination with ZOL
  antifungal MICc: 4
[21]
  MIC / MEC: 8 µg/mL (≈ 15.1 µM)
[22]; in combination with 10-ZOL
  antifungal MICc: 0.125
[22]; in combination with ZOL
  antifungal MICc: 0.25
[23]; in combination with 10-ZOL
  antifungal MICc: 2
[23]; in combination with ZOL
  antifungal MICc: 4
[24]
  MIC / MEC: 4 µg/mL (≈ 7.53 µM)
[25]; in combination with 10-ZOL
  antifungal MICc: 0.5
[25]; in combination with ZOL
  antifungal MICc: 1
[26]; in combination with 10-ZOL
  antifungal MICc: 0.015
[26]; in combination with ZOL
  antifungal MICc: 0.03
[27]
  MIC / MEC: 16 µg/mL (≈ 30.1 µM)
[28]
  MIC / MEC: 8 µg/mL (≈ 15.1 µM)
[29]; in combination with 10-ZOL
  antifungal MICc: 1
[29]; in combination with ZOL
  antifungal MICc: 0.5
[30]; in combination with 10-ZOL
  antifungal MICc: 1
[30]; in combination with ZOL
  antifungal MICc: 1
[31]; in combination with 10-ZOL
  antifungal MICc: 16
[31]; in combination with ZOL
  antifungal MICc: 4
[32]; in combination with 10-ZOL
  antifungal MICc: 0.5
[32]; in combination with ZOL
  antifungal MICc: 0.13
[33]
  MIC / MEC: 0.03 µg/mL (≈ 0.0565 µM)
[34]
  MIC / MEC: 0.02 µg/mL (≈ 0.0376 µM)
